{
  "source": "patent US20110059983A1",
  "about": "“USE OF SUBSTITUTED OXINDOLE DERIVATIVES FOR THE TREATMENT AND PROPHYLAXIS OF PAIN” (Abbott GmbH & Co. KG, priority 2009, published 2011)",
  "system": "Chung model (spinal nerve ligation rats)",
  "assay": "Tactile allodynia test after spinal nerve ligation (SNL, Chung model)",
  "assay_type": "in vivo, rat",
  "conditions": "3, 10 and 30 mg/kg po in saline, administered 1 hour prior to the tactile allodynic test",
  "source_text": "SNL surgery: For spinal nerve ligation surgery, rats were anesthetized with isoflurane gas. […] The hair at the surgical site was clipped and disinfected with alcohol and betadine. Body temperature was maintained during surgery by using a heating pad. A skin incision (approximately 3 cm) was made on the dorsal midline, using the level of the iliac crests as the midpoint of the incision. At the mid-sacral region, on the left side of the vertebral column (in the sagittal plane), a #15 scalpel blade was used to cut the muscles close to the vertebral body until the blade hits the sacrum bone. A retractor system was used to expose the area from the sacro-iliac rim to about 2 cm of the lateral vertebral column. Using rongeurs, the facet joint was removed followed by the L6 transverse process. A glass hook was used to isolate and tightly ligate L5 and L6 with 6-0 silk suture. The muscle was then sutured using 4-0 silk suture. The skin was closed using wound clips.\nTactile allodynia test: The rats were placed on testing stands with screens under their feet. von Frey filaments eliciting various forces (up to 15 g) were applied to the paws, starting with a filament of 4.31 g and proceeding with alternating lighter and heavier filaments. The measured variable is the 50% withdrawal threshold (PWT) and is calculated from the up-down formula in Chaplan et al. 1994.",
  "data": [
    {"smiles": "CCOc1ncccc1C1(NC(=O)N2CCN(C3CCN(C)CC3)CC2)C(=O)N(S(=O)(=O)c2ccc(OC)cc2OC)c2ccc(Cl)cc21", "note": "(stereo not shown) [compound 1]", "values": [
      {"measurement": "50% paw withdrawal threshold (PWT)", "result": "dose-dependently increased the withdrawal threshold"}
    ]}
  ]
}
